Experimental data from patent US20250248924A1, “COMPOUNDS FROM FRUIT SEED EXTRACTS FOR MELANIN REDUCTION IN SKIN” (priority 2024, published 2025).

Columns and labels:
[1] = Solubility in solvents; type: physicochemical
Description: A 2.5 gram sample of a red raspberry seed extract in a dry powder form was split into two fractions, one combined 1.25 grams of the dry extract with 11.25 grams of water to create a 10% aqueous solution of the extract. […] Combining 1.25 grams of the dry extract with about 11.25 grams of isopropyl alcohol (91%) produced an about 10% alcohol solution.
Using pure water was explored in extraction experiments with cranberry seed powder. The advantages of using water are essentially zero cost and toxicity. It is also a very polar solvent and will not extract any residual oils (which are very non-polar compounds) from the seed powders. The limitations of using water are that it gives quite low yields in extractions at room temperature and only dissolved the most polar compounds from the seed powders, leaving most of the medium polarity materials behind. It is possible that this could be improved by heating. […] Simply filtering the mixture through inexpensive filter paper by gravity or mild vacuum will be unsuccessful. One solution that worked was mixing in filtering media (diatomaceous earth) and then vacuum filtering through a bed of the same filtering medium. To completely clarify the mixture, an additional treatment with activated carbon and further vacuum filtering through a bed of diatomaceous earth was effective. Given the limitations of water extraction, it was not used extensively. […]

[2] = Solubility in the enzyme assay; type: physicochemical; conditions: aqueous pH 7.00 phosphate buffer with DMSO stock

O=c1oc2c(O)c(O)cc3c(=O)oc4c(O)c(O)cc1c4c23 [ellagic acid]
solubility in water ([1]; high pH): very water soluble
solubility in water ([1]; neutral pH): only slightly soluble
solubility in the enzyme assay [2]: highly insoluble
